Data set [1] concerns Plasmodium falciparum. Put plainly: Antiplasmodial activity chloroquine-resistant Plasmodium falciparum K1 infected in human A+ erythrocytes assessed as reduction of [3H]hypoxanthine incorporation after 24 hrs by scintillation counting. Type of data set: functional, organism-based.
Data set [2] relates to Plasmodium falciparum. Put plainly: Antiplasmodial activity chloroquine-sensitive Plasmodium falciparum 3D7 infected in human A+ erythrocytes assessed as reduction of [3H]hypoxanthine incorporation after 24 hrs by scintillation counting. Type of data set: functional, organism-based.
Data set [3] has as its system Plasmodium falciparum. Description: Antiplasmodial activity chloroquine-resistant Plasmodium falciparum W2 using YOYO-1 staining after 48 hrs by FACS analysis. Type of data set: functional, organism-based. To be noted: W2, 48 h.
Data set [4] in a line: physchem. The note with it: 0.01 M HCl, pH 2.
A short description of data set [5]: physchem. The note with it: phosphate buffered saline, pH 7.4.
Data set [6] concerns the target T1, Cytochrome P450 2B6 (Homo sapiens, UniProt P20813).
T1 sequence (P20813 whole entry): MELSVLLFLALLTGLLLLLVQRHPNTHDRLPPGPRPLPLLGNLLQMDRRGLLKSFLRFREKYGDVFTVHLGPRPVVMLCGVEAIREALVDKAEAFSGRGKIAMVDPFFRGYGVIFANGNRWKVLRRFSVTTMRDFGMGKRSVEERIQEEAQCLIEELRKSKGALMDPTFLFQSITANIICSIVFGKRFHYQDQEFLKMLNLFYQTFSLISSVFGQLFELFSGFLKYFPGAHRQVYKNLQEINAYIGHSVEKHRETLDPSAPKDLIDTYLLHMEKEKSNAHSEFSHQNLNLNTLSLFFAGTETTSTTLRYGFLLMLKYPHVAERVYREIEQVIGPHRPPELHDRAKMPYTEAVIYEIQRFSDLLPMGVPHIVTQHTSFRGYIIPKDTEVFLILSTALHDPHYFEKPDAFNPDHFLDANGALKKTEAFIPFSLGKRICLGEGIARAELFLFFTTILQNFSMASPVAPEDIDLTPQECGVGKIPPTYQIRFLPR
Put plainly: Inhibition of CYP2B6 in human liver microsomes assessed as bupropion hydroxylation after 20 mins by LC-MS analysis. It is filed as ADME, Microsome.

The nature of data set [7]: Clearance in albino Wistar rat at 1 mg/kg, iv. The note with it: in vivo. Type of data set: ADME, organism-based. The arrangement: dose 1 mg/kg, route intravenous.
In data set [8] the target is Cytochrome P450 2C19 (Homo sapiens, UniProt P33261). Description: Inhibition of CYP2C19 in human liver microsomes assessed as S-mephenytoin 4'-hydroxylation after 20 mins by LCMS analysis. It is filed as ADME, Microsome.
Data set [9] has as its system Liver microsomes. Put plainly: Metabolic stability of the compound in human liver microsomes at 1 uM after 40 mins. It is filed as ADME, Microsome.
Data set [10] has as its system Liver microsomes. Description: Metabolic stability in rat liver microsomes assessed as level of GSH adduct at 5 uM after 1 hr. It is filed as ADME, Microsome.
Data set [11] can be described thus: Oral bioavailability in albino Wistar rat at 10 mg/kg. It is filed as ADME, organism-based. To be noted: in vivo.
Data set [12] can be described thus: AUC (infinity) in albino Wistar rat at 10 mg/kg, po. It is filed as ADME, organism-based. Set-up: time infinity, dose 10 mg/kg, route oral. To be noted: plasma.
Data set [13] can be described thus: Tmax in albino Wistar rat at 10 mg/kg, po. Set-up: dose 10 mg/kg, route oral. It is filed as ADME, organism-based. The note with it: in vivo.
Data set [14] has as its system Hepatocyte. Put plainly: Metabolic stability in human hepatocytes assessed as level of GSH adduct at 5 uM after 1 hr. It is filed as ADME, cell-based.
Data set [15] deals with T2, Cytochrome P450 2A6 (Homo sapiens, UniProt P11509).
T2 sequence (P11509 whole entry): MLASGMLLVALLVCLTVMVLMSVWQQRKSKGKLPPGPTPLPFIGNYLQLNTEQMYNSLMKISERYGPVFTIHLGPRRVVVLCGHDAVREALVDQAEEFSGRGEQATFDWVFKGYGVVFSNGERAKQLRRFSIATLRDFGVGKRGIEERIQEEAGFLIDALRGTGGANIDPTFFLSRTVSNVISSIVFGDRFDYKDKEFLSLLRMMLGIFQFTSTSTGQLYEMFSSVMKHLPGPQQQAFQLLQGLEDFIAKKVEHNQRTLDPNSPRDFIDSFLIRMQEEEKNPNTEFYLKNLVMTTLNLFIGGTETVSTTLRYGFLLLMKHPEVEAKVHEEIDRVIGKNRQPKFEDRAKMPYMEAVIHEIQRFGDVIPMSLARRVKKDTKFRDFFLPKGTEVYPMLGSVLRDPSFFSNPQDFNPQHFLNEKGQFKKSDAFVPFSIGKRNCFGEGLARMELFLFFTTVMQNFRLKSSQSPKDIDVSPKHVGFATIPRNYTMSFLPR
Description: Inhibition of CYP2A6 in human liver microsomes assessed as coumarin 7-hydroxylation after 20 mins by LC-MS analysis. It is filed as ADME, Microsome.

Data set [16] concerns Hepatocyte. Put plainly: Metabolic stability in rat hepatocytes assessed as level of GSH adduct at 5 uM after 1 hr. It is filed as ADME, cell-based.
In data set [17] the test system is Hepatocyte. Put plainly: Drug metabolism in rat hepatocytes assessed as formation of oxidation product at 5 uM after 1 hr. It is filed as ADME, cell-based.
Data set [18] has as its target T3, Cytochrome P450 1A2 (Homo sapiens, UniProt P05177).
T3 sequence (P05177 whole entry): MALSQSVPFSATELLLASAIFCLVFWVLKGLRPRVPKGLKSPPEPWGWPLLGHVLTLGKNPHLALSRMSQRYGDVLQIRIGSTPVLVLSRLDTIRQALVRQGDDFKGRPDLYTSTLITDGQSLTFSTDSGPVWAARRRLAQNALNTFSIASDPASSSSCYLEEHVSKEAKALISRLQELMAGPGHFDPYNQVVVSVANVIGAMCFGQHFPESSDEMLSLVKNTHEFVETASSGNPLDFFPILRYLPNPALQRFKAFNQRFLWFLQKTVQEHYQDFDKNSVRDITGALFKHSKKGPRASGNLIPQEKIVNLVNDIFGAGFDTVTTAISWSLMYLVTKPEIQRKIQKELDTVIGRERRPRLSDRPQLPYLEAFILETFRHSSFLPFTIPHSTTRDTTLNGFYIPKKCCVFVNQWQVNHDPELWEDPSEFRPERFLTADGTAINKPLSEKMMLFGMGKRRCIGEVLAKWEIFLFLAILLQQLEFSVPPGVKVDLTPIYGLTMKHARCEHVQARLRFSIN
Put plainly: Inhibition of CYP1A2 in human liver microsomes assessed as phenacetin O-deethylation after 20 mins by LC-MS analysis. Type of data set: ADME, Microsome.

For data set [19], the system named is CHO. Description: Cytotoxicity against CHO cells by MTT assay. It is filed as cell-based. The note with it: Cricetulus griseus.
Data set [20] concerns Liver microsomes. Description: Metabolic stability of the compound in rat liver microsomes at 1 uM after 40 mins. It is filed as ADME, Microsome.
Data set [21] concerns the target Cytochrome P450 2C9 (Homo sapiens, UniProt P11712). Description: Inhibition of CYP2C9 in human liver microsomes assessed as diclofenac 4'-hydroxylation after 20 mins by LCMS analysis. Type of data set: ADME, Microsome.
Data set [22] in a line: AUC (infinity) in albino Wistar rat at 1 mg/kg, iv. It is filed as ADME, organism-based. The arrangement: time infinity, dose 1 mg/kg, route intravenous. To be noted: plasma.
Data set [23] has as its target T4, Cytochrome P450 2C8 (Homo sapiens, UniProt P10632).
T4 sequence (P10632 whole entry): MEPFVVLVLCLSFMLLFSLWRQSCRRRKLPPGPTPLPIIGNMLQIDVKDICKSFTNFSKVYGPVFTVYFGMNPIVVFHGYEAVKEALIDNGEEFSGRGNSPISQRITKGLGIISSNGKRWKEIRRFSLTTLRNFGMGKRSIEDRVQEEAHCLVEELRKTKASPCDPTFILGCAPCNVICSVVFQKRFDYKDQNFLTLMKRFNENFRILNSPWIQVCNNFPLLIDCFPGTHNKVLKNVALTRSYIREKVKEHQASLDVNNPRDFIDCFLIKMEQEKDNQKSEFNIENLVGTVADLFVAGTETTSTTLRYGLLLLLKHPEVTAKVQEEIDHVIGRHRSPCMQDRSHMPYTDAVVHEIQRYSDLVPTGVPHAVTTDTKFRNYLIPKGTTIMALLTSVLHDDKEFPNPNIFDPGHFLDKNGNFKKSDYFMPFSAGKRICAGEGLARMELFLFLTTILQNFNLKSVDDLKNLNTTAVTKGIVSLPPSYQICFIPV
Put plainly: Inhibition of CYP2C8 in human liver microsomes assessed as paclitaxel 6alpha-hydroxylation after 20 mins by LC-MS analysis. Type of data set: ADME, Microsome.

Data set [24] concerns the target Cytochrome P450 3A4 (Homo sapiens, UniProt P08684). Description: Inhibition of CYP3A4 in human liver microsomes assessed as midazolam 1'-hydroxylation after 20 mins by LCMS analysis. It is filed as ADME, Microsome.
Data set [25] addresses Cytochrome P450 2D6 (Homo sapiens, UniProt P10635). Put plainly: Inhibition of CYP2D6 in human liver microsomes assessed as bufuralol 1'-hydroxylation after 20 mins by LCMS analysis. It is filed as ADME, Microsome.
Data set [26] is described as follows: Cmax in albino Wistar rat at 10 mg/kg, po. It is filed as ADME, organism-based. Set-up: dose 10 mg/kg, route oral. To be noted: in vivo.
The subject of data set [27] is Liver microsomes. Description: Metabolic stability in human liver microsomes assessed as level of GSH adduct at 5 uM after 1 hr. It is filed as ADME, Microsome.
In data set [28] the target is Cytochrome P450 2E1 (Homo sapiens, UniProt P05181). Description: Inhibition of CYP2E1 in human liver microsomes assessed as chlorzoxazone 6-hydroxylation after 20 mins by LC-MS analysis. Type of data set: ADME, Microsome.
The nature of data set [29]: Half life in albino Wistar rat at 1 mg/kg, iv. Type of data set: ADME, organism-based. Set-up: dose 1 mg/kg, route intravenous. The note with it: in vivo.
The test system of data set [30] is Liver microsomes. Put plainly: Drug metabolism in rat liver microsomes assessed as formation of N-dealkylation product at 5 uM after 1 hr. Type of data set: ADME, Microsome.
Data set [31] in a line: Volume of distribution at steady state in albino Wistar rat at 1 mg/kg, iv. It is filed as ADME, organism-based. The arrangement: dose 1 mg/kg, route intravenous. To be noted: in vivo, read-out: Vdss.

Converted amounts (≈) assume the structure as drawn.

Chain of Cytochrome P450 2C19 (P33261 whole entry): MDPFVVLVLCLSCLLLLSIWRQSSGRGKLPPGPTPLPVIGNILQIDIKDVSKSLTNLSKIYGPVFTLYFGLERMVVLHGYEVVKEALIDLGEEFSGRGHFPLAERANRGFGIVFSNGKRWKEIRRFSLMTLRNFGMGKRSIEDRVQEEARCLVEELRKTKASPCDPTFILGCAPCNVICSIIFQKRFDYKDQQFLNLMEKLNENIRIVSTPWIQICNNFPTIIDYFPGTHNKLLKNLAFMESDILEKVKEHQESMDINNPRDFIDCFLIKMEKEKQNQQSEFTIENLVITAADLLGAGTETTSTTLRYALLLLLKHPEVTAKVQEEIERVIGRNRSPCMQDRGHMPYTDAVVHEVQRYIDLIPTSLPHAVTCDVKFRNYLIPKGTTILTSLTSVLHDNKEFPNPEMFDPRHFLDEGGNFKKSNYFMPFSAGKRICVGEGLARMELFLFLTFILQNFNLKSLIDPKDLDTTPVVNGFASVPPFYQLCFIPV
Chain of Cytochrome P450 2C9 (P11712 whole entry): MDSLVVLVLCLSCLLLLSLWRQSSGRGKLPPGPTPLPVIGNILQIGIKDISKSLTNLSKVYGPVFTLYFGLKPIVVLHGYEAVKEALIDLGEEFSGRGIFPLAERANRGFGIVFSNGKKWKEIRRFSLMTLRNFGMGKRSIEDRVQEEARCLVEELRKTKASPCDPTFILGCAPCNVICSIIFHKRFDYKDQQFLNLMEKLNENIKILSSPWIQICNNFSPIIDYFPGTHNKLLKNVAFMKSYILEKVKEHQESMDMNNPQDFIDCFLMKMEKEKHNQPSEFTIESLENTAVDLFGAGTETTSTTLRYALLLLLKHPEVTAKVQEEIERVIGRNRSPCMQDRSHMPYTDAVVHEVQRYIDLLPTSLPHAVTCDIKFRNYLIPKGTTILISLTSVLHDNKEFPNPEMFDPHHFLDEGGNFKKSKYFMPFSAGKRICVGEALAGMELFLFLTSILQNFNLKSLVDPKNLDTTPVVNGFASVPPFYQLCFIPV
Chain of Cytochrome P450 2E1 (P05181 whole entry): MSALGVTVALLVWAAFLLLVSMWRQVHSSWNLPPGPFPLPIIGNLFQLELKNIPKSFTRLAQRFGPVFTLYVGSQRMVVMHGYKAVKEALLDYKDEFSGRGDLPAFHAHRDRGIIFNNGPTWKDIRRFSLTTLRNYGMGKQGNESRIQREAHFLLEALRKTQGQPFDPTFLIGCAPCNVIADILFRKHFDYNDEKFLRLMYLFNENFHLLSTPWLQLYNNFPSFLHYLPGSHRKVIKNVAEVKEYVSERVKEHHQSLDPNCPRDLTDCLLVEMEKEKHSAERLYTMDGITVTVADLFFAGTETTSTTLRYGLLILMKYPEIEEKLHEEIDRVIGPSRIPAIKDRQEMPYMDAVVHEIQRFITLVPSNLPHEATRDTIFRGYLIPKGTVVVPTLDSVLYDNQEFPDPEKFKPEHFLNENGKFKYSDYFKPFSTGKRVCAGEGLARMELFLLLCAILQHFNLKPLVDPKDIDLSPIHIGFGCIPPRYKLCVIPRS
Chain of Cytochrome P450 2D6 (P10635 whole entry): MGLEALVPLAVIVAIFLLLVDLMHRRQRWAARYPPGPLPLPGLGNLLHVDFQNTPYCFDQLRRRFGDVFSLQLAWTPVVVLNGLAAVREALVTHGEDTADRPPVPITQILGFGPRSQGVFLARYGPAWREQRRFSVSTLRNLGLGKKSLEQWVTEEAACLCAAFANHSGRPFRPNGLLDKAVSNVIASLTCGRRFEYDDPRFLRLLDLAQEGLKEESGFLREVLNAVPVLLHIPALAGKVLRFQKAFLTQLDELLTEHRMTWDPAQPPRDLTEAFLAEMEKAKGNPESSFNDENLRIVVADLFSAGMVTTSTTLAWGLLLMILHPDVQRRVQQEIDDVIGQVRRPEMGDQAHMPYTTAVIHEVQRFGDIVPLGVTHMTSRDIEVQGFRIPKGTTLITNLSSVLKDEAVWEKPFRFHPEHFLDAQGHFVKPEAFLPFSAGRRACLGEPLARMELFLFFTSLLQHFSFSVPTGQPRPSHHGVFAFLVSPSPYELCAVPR
Chain of Cytochrome P450 3A4 (P08684 whole entry): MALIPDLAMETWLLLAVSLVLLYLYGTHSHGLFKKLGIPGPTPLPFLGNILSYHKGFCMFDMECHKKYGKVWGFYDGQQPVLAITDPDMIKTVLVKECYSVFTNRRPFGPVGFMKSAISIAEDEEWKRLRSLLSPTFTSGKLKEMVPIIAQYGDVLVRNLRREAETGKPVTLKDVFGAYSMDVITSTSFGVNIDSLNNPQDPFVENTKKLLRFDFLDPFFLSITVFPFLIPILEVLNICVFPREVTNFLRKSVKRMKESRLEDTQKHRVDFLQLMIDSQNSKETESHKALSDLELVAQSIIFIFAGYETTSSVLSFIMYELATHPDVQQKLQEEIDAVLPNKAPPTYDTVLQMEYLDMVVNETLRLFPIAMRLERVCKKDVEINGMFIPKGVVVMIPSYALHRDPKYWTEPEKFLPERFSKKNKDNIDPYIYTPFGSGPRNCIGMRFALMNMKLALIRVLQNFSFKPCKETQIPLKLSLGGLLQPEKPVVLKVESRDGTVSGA

As to `CCN(CC)Cc1cc(Nc2ccnc3cc(Cl)ccc23)ccc1O`, the values for the IC50 in [1], in data set [2] and in data set [3] were 27 nM, 1 nM and 401 nM, respectively.

`CN(C)C(c1cccc(Nc2ccnc3cc(Cl)ccc23)c1)c1nnnn1C(C)(C)C` (stereo unspecified): the half-maximal inhibitory concentration (IC50) in [1] came out at 150 nM; in data set [2], 52 nM; in [3], 227 nM. Moreover, the results for the kinetic solubility at 2 h in data set [4] and in [5] were greater than 200 µM and 7.3 µM (≈ 3.18 µg/mL), respectively.

For the compound `CC(C)(C)n1nnnc1C(c1cccc(Nc2ccnc3cc(Cl)ccc23)c1)N1CCCC1` (stereo unspecified), the IC50 in [1] is 9.6 nM; in data set [6] it was greater than 20000 nM; in [8] it was 13800 nM; in data set [2], 10 nM; in [15], greater than 20000 nM; in data set [3], 77 nM. The half-maximal inhibitory concentration (IC50) in data set [18] was 2540 nM; in [19], 117000 nM; in data set [21], 3140 nM; in data set [23], 120 nM; in data set [24], 1450 nM; in data set [25], 3460 nM. In addition, the IC50 in [28] is greater than 20000 nM. Besides, the solubility (kinetic) at 2 h is greater than 200 µM in [4] and less than 5 µM in data set [5]. The compound further showed a clearance in [7] of 278 mL/min/kg. For the same compound, the Stability entry in data set [9] is “Unstable”; in [10], “Stable”; in data set [14], “Stable”; in [16], “Stable”; in data set [20], “Unstable”; in data set [27], “Stable”. This compound also yielded a bioavailability in data set [11] of 3.3%. Moreover, the AUC(0-inf) in data set [12] came to 21 ng·h/mL; in data set [22] it was 63.5 ng·h/mL. The Tmax in data set [13] turned out to be 15 min. In addition, the Drug metabolism result in data set [17] and in [30] was “Active” in each case. This compound yielded a maximum concentration (Cmax) in [26] of 13.3 ng/mL. Also, the half-life in [29] is 51 min. For the same compound, the Vd in [31] was found to be 12.2 L/kg.

Turning to `CC(C)(C)n1nnnc1C(c1cccc(Nc2ccnc3cc(Cl)ccc23)c1)N1CCCCC1` (stereo unspecified), the IC50 is 170 nM in data set [1], 50 nM in data set [2] and 82 nM in data set [3]. Moreover, the solubility (kinetic) at 2 h was greater than 200 µM in data set [4] and less than 5 µM in data set [5].

As to `CC(C)(C)n1nnnc1C(c1cccc(Nc2ccnc3cc(Cl)ccc23)c1)N1CCOCC1` (stereo unspecified), the IC50 in data set [1] stood at 1290 nM; in data set [2], 99 nM; in data set [3] it was 195 nM.

As for `CN(C)C(c1cccc(Nc2ccnc3cc(Cl)ccc23)c1)c1nnnn1CCN1CCOCC1` (stereo unspecified), the IC50 amounted to 379 nM in data set [1], 379 nM in data set [2] and 544 nM in data set [3].

On to `CCN(CC)C(c1cccc(Nc2ccnc3cc(Cl)ccc23)c1)c1nnnn1CCN1CCOCC1` (stereo unspecified), for which the IC50 in data set [1] is 245 nM; in [2], 30 nM; in data set [3], 194 nM.

For `Clc1ccc2c(Nc3cccc(C(c4nnnn4CCN4CCOCC4)N4CCCC4)c3)ccnc2c1` (stereo unspecified), the figures for the IC50 in data set [1], in [2] and in data set [3] were 310 nM, 220 nM and 3390 nM, respectively.
